Test results reported in paper PMC6486608, “A cell-penetrating peptide blocks Toll-like receptor-mediated downstream signaling and ameliorates autoimmune and inflammatory diseases in mice” (Experimental & Molecular Medicine, 2019).
pKd: −log10 of the molar value. Ends that are not written are not given here.

Columns and labels:
[1] = test system: CIA mouse model (DBA/1J mice); test: RA in a model of CIA; type: in vivo; details: i.p. daily
Protocol: All animal care and experimental procedures were conducted in accordance with the National Institute of Health Guide for the Care and Use of Laboratory Animals and were approved by the Animal Care and Use Committee of Kyung Hee University [Permit number: KHUASP(SE)-15-115]. Male DBA/1J mice weighing 20–23 g (6–7 weeks old) were purchased from Central Lab Animal Inc. (Seoul, Korea). The mice were housed in a limited-access rodent facility at 22–24 °C with up to four animals per polycarbonate cage under a 12:12-h light/dark cycle with free access to pelleted food and water. CIA was implemented according to the protocol previously described. Briefly, the mice were immunized at the base of the tail with a mixture of 100 μg of chicken type II collagen (CII, Sigma-Aldrich) and an equal volume of complete Freund’s adjuvant (Sigma-Aldrich); this time point was designated as day 0. The mice were then given a booster (second) injection of the mixture on day 14. […] To evaluate arthritis progression in the CIA mice, body weight, paw volume, squeaking score, and the arthritic index were measured. The mouse body weights were measured using a digital balance (Mettler-Toledo Inc., Columbus, OH, USA). Joint pain in the hindlimb was evaluated by scoring squeaking during forced flexion and extension of the hindlimb ankle joint 10 times every 5 s. […] Total numbers of vocalizations detected by the observer were then calculated as the squeaking score. Paw volume was measured by the volume displacement of an electrolyte solution using a water-displacement plethysmometer (Ugo-Basile Biological Research Apparatus Co., Comerio-Varese, Italy) as described elsewhere[13],[14]. The hind paw was immersed to the level of the hairy skin, and the volumes were read on a digital display. Paw volume was expressed as a relative value compared with that on day 0, which was defined as 1.0 (100%). […]

[2] = biological target: T1, BB loop (710-RDFIPGVAIAA-720) of the TLR4-TIR domain (Homo sapiens, UniProt O00206); test: SPR, BB loop; type: binding
T1 construct: Synthetic peptides encoding the BB loop (710-RDFIPGVAIAA-720) of the TIR domain were immobilized; purchased Peptron, Inc. (Daejeon, Korea); host or cells: chemical synthesis
Protocol: The SPR experiments were conducted using a ProteOn XPR36 instrument (Bio-Rad Laboratories, Inc.) with a ProteOn NLC sensor chip. PBST served as running buffer, and 0.85% phosphoric acid or PBST was used for regeneration. Synthetic peptides encoding the BB loop (710-[…]-720) of the TIR domain were immobilized by NeutrAvidin bound to the GLC polymer layer onto surfaces of an NLC sensor chip as described in the protocol. Different concentrations of TIP1 (12.5, 25, or 50 μM) were run into the chip to check their binding with the immobilized peptides. Running buffer was injected into an empty channel as a reference. The dissociation was monitored for 5 min, and the chip was regenerated for the second round. ProteOn Manager software (version 2.0) was employed to analyze the data. The binding curves were processed for the start injection alignment and baseline. A reference-subtracted sensorgram was fitted globally to the curves describing a homogeneous 1:1 model. Data from various doses of TIP1 were grouped together to fit the kinetic rate constants (ka and kd). The equilibrium dissociation constant, KD, was calculated according to the equation KD = kd/ka. Surface plasmon resonance (SPR) is a powerful technique used for high-throughput screening and is considered a potent tool for drug discovery. SPR can provide detailed information on peptide-receptor binding kinetics or small-molecule-protein or protein-protein interactions. […] The association rate constant (ka), dissociation rate constant (kd), and equilibrium dissociation constant (KD) of TIP1 were measured in a dose-dependent manner (Fig. 4a). […] Later, the fluorescence intensities of TIP1-FITC, TLR4, and MyD88 were measured by immunofluorescent staining and confocal microscopy. […] The expression levels of TLR4 and MyD88 and the localization of TIP1-FITC were determined by immunofluorescent staining and confocal microscopy. Orthogonal projections, 3D image reconstruction, and fluorescence intensity profiles of confocal images show localization of TIP1-FITC and TLR4.

kon ([2]; homogeneous 1:1 model, global fit of 12.5, 25, 50 µM, read-out: ka (association rate constant))	koff ([2]; homogeneous 1:1 model, global fit of 12.5, 25, 50 µM, read-out: kd (dissociation rate constant))	pKd ([2]; printed in figure 4a, calculated as kd/ka)	Compound	body weight, average ([1]; TIP1 10 nmol/g or prednisolone 5 mg/kg, CIA 16.9 g, normal 21.9 g)	arthritis index score ([1]; TIP1 10 nmol/g or prednisolone)	squeaking and paw volume increase ([1]; TIP1 10 nmol/g or prednisolone)
–	–	–	C[C@]12C=CC(=O)C=C1CC[C@@H]1[C@@H]2[C@@H](O)C[C@@]2(C)[C@H]1CC[C@]2(O)C(=O)CO [prednisolone]	21.0 g	significantly decreased the index score	highly increased in the CIA mice compared with normal mice but not in the TIP1 (10 nmol/g)- or prednisolone-injected mice
187 M⁻¹ s⁻¹	0.00782 s⁻¹	4.38	RQIKIWFQNRRMKWKKSHCRVLLI [TIP1]	–	–	–
